Holding throughout (type): in vivo
For assay [1], the system named is CES3. Description: CES3 expression in Fuzzy rat epidermal split after 8 days of topical treatment, Affymetrix transcriptome analysis. Conditions: topical 1% once a day for 8 days, female FUZZY rat. The procedure: The studies are carried out in female Fuzzy rats (Hsd: FUZZY-fz) 10 weeks old at the beginning of the study. The animals are treated at a dose of 1% (PPARg agonist Rosiglitazone in solution in acetone) once a day for 8 days. Two hours after the final treatment, the animals are sacrificed by euthanasia and the skin on the back is removed. After incubation in […], the epidermis carrying the sebaceous glands is detached from the dermis (epidermal split). After grinding of the samples, the mRNA is prepared using Qiagen columns, in accordance with the suppliers' instructions. The material thus prepared is subjected to large-scale transcriptome analysis on an Affymetrix platform. The data are subsequently standardized and, after statistical analysis, the results produced are expressed in arbitrary expression units (see below) accompanied, for each piece of data, by a statistical value for presence of the transcript (presence=1; absence=0).

The subject of another assay is CES1. Description: CES1 gene expression in rat sebaceous gland (epidermal split) after topical PPARgamma agonist, real-time PCR. To be noted: topical 1% in acetone, female FUZZY rat, mRNA standardized to 18S, versus carrier group; for CES1 Relative induction - kinetics (hours): 0: 0 hours; for CES1 Relative induction - kinetics (hours): 8: 8 hours; for CES1 Relative induction - kinetics (hours): 24: 24 hours; for CES1 Relative induction - kinetics (hours): 48: 48 hours; for CES1 Relative induction - kinetics (hours): 96: 96 hours. The source says:
(§1) Materials and methods: • Animals: Species: rat • Strain: Ico:HSd:FUZZY-fz • Gender: female • Age: 10 weeks • Number per batch: 40 (8 animals per group) • Treatment: Route of administration: topical • Compound/batch: PPARgamma agonists: • A: 5-{4-[2-(methylpyridin-2-ylamino)ethoxy]benzyl}thiazolidine-2,4-dione • B: 2-(methoxyethoxymethoxy)naphthalene-2-carboxylic acid [4′-(2,4-dioxothiazolidin-5-ylmethyl)biphenyl-3-ylmethyl]methylamide […] • C: (S)-2-ethoxy-3-{4-[6-(3-heptyl-1-methylureido)pyridin-2-yl]phenyl}propionic acid • Doses: 1% • Carrier: acetone (001) • Duration: 96 hours Method of evaluation: The animals are weighed at the beginning and at the end of the study. Skin biopsies are taken (6 samples of skin excised per rat) in order to analyze the expression of the genes (RNA extraction, reverse transcriptase and real-time PCR). The samples are stored at 4° C. overnight before incubation in 1 M sodium bromide (NaBr) for 2 hours at 37° C. After incubation, the samples are separated into epidermis or dermis. The epidermal samples are stored at 20° C. Under these conditions, the sebaceous glands are in the epidermal split. PCRs are carried out, beginning with the cDNAs originating from the epidermal splits containing sebaceous glands from control rats or rats treated with a PPARγ agonist: the mRNA is extracted using a column and quantified. The quality of the mRNAs is measured and is represented by the 18S/28S ratio. The results are standardized with respect to 18S, expressed as relative induction versus untreated animals (carrier group). The statistical analysis is obtained using internal software based on a modified Monte Carlo statistical analysis.

The subject of assay [2] is CES3. Put plainly: CES3 gene expression in rat sebaceous gland (epidermal split) after topical PPARgamma agonist, real-time PCR. To be noted: topical 1% in acetone, female FUZZY rat, mRNA standardized to 18S, versus carrier group; for CES3 Relative induction - kinetics (hours): 0: 0 hours; for CES3 Relative induction - kinetics (hours): 8: 8 hours; for CES3 Relative induction - kinetics (hours): 24: 24 hours; for CES3 Relative induction - kinetics (hours): 48: 48 hours; for CES3 Relative induction - kinetics (hours): 96: 96 hours.
Description: as §1, with “Ico:Hsd FUZZY-fz” for “Ico:HSd:FUZZY-fz”

Turning to `CN(CCOc1ccc(CC2SC(=O)NC2=O)cc1)c1ccccn1` (stereo not shown) [Rosiglitazone], the “Significance of the expression after treatment with 1% Rosiglitazone (presence =1, absence =0)” value in the assay with CES3 [1] (control condition 1) is 0. In the assay with CES3 [1] (control condition 443), the “Expression after treatment with 1% Rosiglitazone (CES3, 1370363_at)” value was 15 arbitrary expression units.
For the compound `CCCCCCCNC(=O)N(C)c1cccc(-c2ccc(C[C@H](OCC)C(=O)O)cc2)n1` [C, (S)-2-ethoxy-3-{4-[6-(3-heptyl-1-methylureido)pyridin-2-yl]phenyl}propionic acid], in the assay on CES1, the “CES1 Relative induction - kinetics (hours): 0” value is reported as 1, the “CES1 Relative induction - kinetics (hours): 8” value amounted to 0.55, the “CES1 Relative induction - kinetics (hours): 24” value came out at 0.38 and the “CES1 Relative induction - kinetics (hours): 48” value is reported as 0.04. In addition, the “CES1 Relative induction - kinetics (hours): 96” value in the assay on CES1 is 0.03. In the assay on CES3 [2], the “CES3 Relative induction - kinetics (hours): 0” value was 1, the “CES3 Relative induction - kinetics (hours): 8” value came out at 0.33, the “CES3 Relative induction - kinetics (hours): 24” value turned out to be 0.12 and the “CES3 Relative induction - kinetics (hours): 48” value is listed as 0.02. Further, in the assay with CES3 [2], the “CES3 Relative induction - kinetics (hours): 96” value is listed as 0.00.
Take `CN(CCOc1ccc(CC2SC(=O)NC2=O)cc1)c1ccccn1` (stereo not shown) [A, 5-{4-[2-(methylpyridin-2-ylamino)ethoxy]benzyl}thiazolidine-2,4-dione]: in the assay with CES1, the “CES1 Relative induction - kinetics (hours): 0” value was 1, the “CES1 Relative induction - kinetics (hours): 8” value is 1.93, the “CES1 Relative induction - kinetics (hours): 24” value is recorded as 1.01 and the “CES1 Relative induction - kinetics (hours): 48” value is listed as 0.45. Also, the “CES1 Relative induction - kinetics (hours): 96” value with CES1 stood at 0.13. Also, in the assay on CES3 [2], the “CES3 Relative induction - kinetics (hours): 0” value stood at 1, the “CES3 Relative induction - kinetics (hours): 8” value is 1.72, the “CES3 Relative induction - kinetics (hours): 24” value worked out at 0.46 and the “CES3 Relative induction - kinetics (hours): 48” value is on record as 0.22. The “CES3 Relative induction - kinetics (hours): 96” value in the assay with CES3 [2] was determined as 0.07.
